Results reported in patent US8937050B2, “Methods and compositions for treatment of autism” (The Johns Hopkins University, priority 2011, dated 2015).

Columns and labels:
XALD fibroblasts [1] = test: Inhibition studies: ATP5B immunofluorescence of drug-induced mitochondrial biogenesis; type: cell-based, human; conditions: inhibitor added before 4PBA, HU, TSA or SFN; XALD fibroblasts
Protocol: Performed as described in Watkins et al., 1995 using 4% formaldehyde, 1% Triton X-100, primary antibody anti-ATP5B (Millipore, Billerica, Mass.) or anti-ABCD3 (Invitrogen, Carlsbad, Calif.), and secondary antibody sheep anti-mouse IgG FITC-conjugated (Santa Cruz Biotechnology, Santa Cruz, Calif.) or goat anti-rabbit IgG rhodamine-conjugated (Jackson ImmunoResearch, West Grove, Pa.).
Antimycin A (10 ng/mL), LY294002, PD98059, RO-31-8425, SB203580, SP600125, and L-NAME were obtained from Sigma. Compound C was from EMD Biosciences (Darmstadt, Germany). Human fibroblasts were treated with each inhibitor. Then, 45-75 min later, either 4PBA, HU, TSA, or SFN was added. Cells were stained four to six days after treatment with one of the small molecules. As a control for inhibitors dissolved in DMSO, fibroblasts were treated with an equivalent amount of DMSO in the absence of inhibitor. […]
In FIGS. 2A-B, the JNK inhibitor SP600125 (10 μM+inh) was utilized. […] XALD fibroblasts were treated with each drug for four days with or without SP600125. (400× magnification). […] Normal human fibroblasts were treated with each of the small four molecules with or without SP600125 for six days. Quantitative in-cell western analyses were performed using anti-ATP5B.

FL-SMN mRNA = test: RT-PCR of FL-SMN and total SMN mRNA in spinal muscular atrophy fibroblasts; type: cell-based, human; conditions: effect of co-treatment with stress pathway inhibitor; FIG. 8B
Protocol: Following the manufacturer's protocols, DNase I-treated cDNA was synthesized using Superscript III or Thermoscript reverse transcriptase (Invitrogen). PCR reactions were performed in duplicate on the Roche Lightcycler 3.5 (Basel, Switzerland) or the Bio-Rad iCycler (Hercules, Calif.) using Quantitech SYBR green PCR mix (Qiagen, Valencia, Calif.). GeNorm software calculated a normalization factor for each sample using the relative amounts of at least two of the following reference genes, β2-microglobulin, […], actin, and/or eukaryotic elongation factor 1A (Vandesompele et al., 2002). Primers for the various experiments described herein are listed below.
Type I and type III spinal muscular atrophy (SMA I or SMA III) fibroblasts were treated with SFN for the indicated times. The relative fold increase in the ratio of FL-SMN/total SMN transcripts compared with the untreated cell line (normalized to 1) is plotted. Cell lines from left to right are GM09677, GM00232 and 2906. N≧2 independent experiments.
Spinal muscular atrophy fibroblasts were treated with 1.5 mM SFN alone for 51 hr. (SMA I, GM09677) or treated with 0.5 mM SFN for 8 hr. (SMA III, 2906) with or without […] SP600125 (JNK inhibitor), 2.5 mM 3-methyladenine (autophagy inhibitor, APG), […] antimycin A (mitochondrial inhibitor, MITO) or […] sirtinol (SIRT1 inhibitor). The fold increases in FL-SMN expression compared with either GAPDH or total SMN expression and the fold increase in total SMN expression compared with GAPDH expression after SFN treatment is plotted. Untreated values were normalized to 1 and are indicated by the horizontal line. (n=1 per cell line, performed in duplicate)
To determine which stress pathways are necessary for the increase in FL-SMN production, spinal muscular atrophy fibroblasts were co-treated with SFN and either SP600125, an inhibitor of the JNK pathway (Bennett et al., 2001), 3-methyladenine, an inhibitor of the autophagy pathway (Seglen et al., 1982), antimycin A, a mitochondrial inhibitor (Ranganathan et al., 2009), or sirtinol, an inhibitor of SIRT1 activity (Grozinger et al., 2001). […] SIRT1, an NAD+-dependent deacetylase, is known to regulate cellular stress responses, cellular metabolism and cellular survival (Salminen et al., 2009). Specifically, SIRT1 inhibition reduces the induction of HSR genes (Westerheide et al., 2009); SIRT1 activity enhances SOD2 expression (Anastasiou et al., 2006); SIRT1 negatively regulates the mammalian target of rapamycin triggering autophagy (Haigis et al., 2010); and SIRT1 activates mitochondrial biogenesis via the stress-responsive transcription factor PGC1a (Yu et al., 2009). The yeast ortholog Sir2 is necessary for the induction of mitochondrial biogenesis by 4PBA or HU in Saccharomyces cerevisiae (Cha 2010). […] However, SIRT1 can be activated by various post-translational changes. Therefore, the potential involvement of SIRT1 in the therapeutic effects of these drugs by inhibition studies was evaluated.

K562 cells [2] = test: Flow cytometric analysis of mitochondrial mass (Mitotracker); type: cell-based, human; conditions: FIG. 1C
Protocol: (§1) Fibroblasts (70-95% confluent) were treated with 5 mM 4PBA (1 mM for JNK inhibition studies), 600 μM HU, 200 nM TSA, or 5 μM SFN unless otherwise specified.
(§2) K562 cells were incubated with 50 nM Mitotracker Green FM, 300 nM Mitotracker Deep Red 633 (Invitrogen), or PBS as a negative control for 15 min at 37° C. or stained with anti-Pex14 using Caltag Fix and Perm reagents (Invitrogen) following the manufacturer's instructions. Stained cells were suspended in 0.5 mL of 1% paraformaldehyde/PBS and subjected to flow cytometric analysis (FACScan machine, Becton Dickinson, Franklin Lakes, N.J.).
(§3) K562 cells were treated with SB and HU for four to ten days. […] (n≧3 unless otherwise noted).
To determine whether the induction of mitochondrial biogenesis by SB or HU treatment was necessary for the induction of HbF-producing cell production, K562 cells were treated with SB or HU in the presence or absence of AA. […] After two to four days of drug treatment with or without AA, mitochondrial mass was measured using Mitotracker, a mitochondrial stain. Fold change (drug treated/control) is shown. […] After four days of drug treatment with or without AA, cells were stained with DAF. The relative number of cells producing HbF (DAF stained cells) were plotted. […] After eight to ten days of drug treatment, peroxisome proliferation was measured using an antibody against the peroxisomal membrane protein, PEX14 and a FITC-labeled secondary antibody. Fold change (drug treated/control) is shown. In FIGS. 1C, 1D, and 1E, the * represents a statistically significant increase in a measurement between drug treated and control samples or a statistically significant decrease in a measurement between drug treated and drug treated samples in the presence of AA (p≦0.05) (Bars=SEM). This finding indicates dependence of the beneficial effect (i.e., elevated HbF levels) on induced mitochondrial biogenesis. Thus, the therapeutic effects observed in SCD may involve the pharmacological induction of mitochondrial biogenesis by SB or HU. […]

K562 cells [3] = test: Flow cytometric analysis of peroxisome proliferation (PEX14); type: cell-based, human; conditions: eight to ten days, FIG. 1E
Protocol: as §1, §2, §3
To determine whether the induction of mitochondrial biogenesis by SB or HU treatment was necessary for the induction of HbF-producing cell production, K562 cells were treated with SB or HU in the presence or absence of AA. […] After two to four days of drug treatment with or without AA, mitochondrial mass was measured using Mitotracker, a mitochondrial stain. Fold change (drug treated/control) is shown. […] After four days of drug treatment with or without AA, cells were stained with DAF. […] After eight to ten days of drug treatment, peroxisome proliferation was measured using an antibody against the peroxisomal membrane protein, PEX14 and a FITC-labeled secondary antibody. […]

K562 cells [4] = test: HbF-producing cell production (DAF staining); type: cell-based, human; conditions: FIG. 1D
Protocol: as §1
K562 cells were suspended in 1.1 mL media and 240 μL of DAF [working solution 50 μL 2,7diaminofluorene (DAF) stock (50 μg DAF in 5 mL 90% glacial acetic acid), 50 μL 30% hydrogen peroxide, and 2.5 ml 200 mM Tris-HCl, pH 7.0]. DAF stained hemoglobinized cells were scored using a hemocytometer.
as §3
To determine whether the induction of mitochondrial biogenesis by SB or HU treatment was necessary for the induction of HbF-producing cell production, K562 cells were treated with SB or HU in the presence or absence of AA. […] After two to four days of drug treatment with or without AA, mitochondrial mass was measured using Mitotracker, a mitochondrial stain. Fold change (drug treated/control) is shown. […] After four days of drug treatment with or without AA, cells were stained with DAF. The relative number of cells producing HbF (DAF stained cells) were plotted. […] After eight to ten days of drug treatment, peroxisome proliferation was measured using an antibody against the peroxisomal membrane protein, PEX14 and a FITC-labeled secondary antibody. Fold change (drug treated/control) is shown. In FIGS. 1C, 1D, and 1E, the * represents a statistically significant increase in a measurement between drug treated and control samples or a statistically significant decrease in a measurement between drug treated and drug treated samples in the presence of AA (p≦0.05) (Bars=SEM). This finding indicates dependence of the beneficial effect (i.e., elevated HbF levels) on induced mitochondrial biogenesis. Thus, the therapeutic effects observed in SCD may involve the pharmacological induction of mitochondrial biogenesis by SB or HU.
K562 cells were treated for four days with HU in the presence or absence of SP600125 or PBS as a control (CON). […]

HbF = conditions: Keefer et al., 2006; cited from earlier work
XALD fibroblasts [5] = test: Fatty acid β-oxidation of 1-14C-labeled fatty acids; type: cell-based, human
Protocol: Fatty acid β-oxidation activity in XALD fibroblasts was determined by measuring their capacity to degrade 1-^14C-labeled fatty acids to water-soluble products as described in McGuiness et al., 2003.
4PBA-induced peroxisomal VLCFA β-oxidation (degradation) is dependent on mitochondrial long chain fatty acid (LCFA) β-oxidation (McGuinness et al., 2003). […] Antimycin A (AA) is a cytochrome c reductase inhibitor that inhibits the mitochondrial electron transport chain, mitochondrial biogenesis, and thus, cellular respiration (Ranganathan et al., 2009). […] XALD fibroblasts were treated with 4PBA in the presence or absence of antimycin A (AA), a cytochrome c reductase inhibitor, for five days and β-oxidation levels of LCFA (C16:0) and VLCFA (C24:0) levels were measured.

[6] = K562 cells, 1.2 mM SB or 100 μM HU

## COc1cccc(-c2cc(=O)c3ccccc3o2)c1N [PD98059]
XALD fibroblasts [1]
  Inhibits Mitochondrial Biogenesis?: no

## C[S+]([O-])c1ccc(-c2nc(-c3ccncc3)c(-c3ccc(F)cc3)[nH]2)cc1 (stereo not drawn) [SB203580]
XALD fibroblasts [1]
  Inhibits Mitochondrial Biogenesis?: no

## N#CC(=C(/N)Sc1ccccc1N)/C(C#N)=C(\N)Sc1ccccc1N [U0126]
XALD fibroblasts [1]
  Inhibits Mitochondrial Biogenesis?: no

## Cn1cnc(N)c2ncnc1-2 [3-methyladenine]
FL-SMN mRNA
  increase in FL-SMN transcript levels in SFN-treated spinal muscular atrophy fibroblasts: prevented

## CCCC(=O)[O-].[Na+] [SB, Sodium butyrate]
K562 cells [2]; [6]
  mitochondrial mass: significantly increased
K562 cells [3]
  peroxisomal proliferation: significantly increased
K562 cells [4]; [6]
  number of HbF-producing cells: significantly increased
HbF
  HbF levels: increased

## c1cc(-c2cnn3cc(-c4ccc(OCCN5CCCCC5)cc4)cnc23)ccn1 [compound C]
XALD fibroblasts [1]
  Inhibits Mitochondrial Biogenesis?: no

## Antimycin A [AA]
K562 cells [2]; effect of co-treatment with AA
  induction of mitochondrial biogenesis by SB or HU treatment: significantly inhibited
K562 cells [4]; effect of co-treatment with AA
  induction of HbF-producing cells by SB or HU treatment: significantly inhibited
FL-SMN mRNA
  increase in FL-SMN transcript levels in SFN-treated spinal muscular atrophy fibroblasts: prevented
XALD fibroblasts [5]; 4PBA in the presence of AA
  induction of peroxisomal VLCFA β-oxidation: blocked
XALD fibroblasts [5]; in the presence of AA (10 ng/mL)
  4PBA-induction of mitochondrial LCFA β-oxidation: inhibited

## Cn1cc(C2=C(c3c4n(c5ccccc35)CCC(CN)C4)C(=O)NC2=O)c2ccccc21 (stereo not drawn) [RO-21-8425]
XALD fibroblasts [1]
  Inhibits Mitochondrial Biogenesis?: no

## COC(=O)[C@@H](N)CCCNC(=N)N[N+](=O)[O-] [L-NAME]
XALD fibroblasts [1]
  Inhibits Mitochondrial Biogenesis?: no

## CC(NC(=O)c1ccccc1/N=C/c1c(O)ccc2ccccc12)c1ccccc1 (stereo not drawn) [sirtinol]
FL-SMN mRNA
  increase in FL-SMN transcript levels in SFN-treated spinal muscular atrophy fibroblasts: prevented

## COc1cc(C[C@H]2C(=O)OC[C@@H]2Cc2ccc(OC)c(OC)c2)ccc1O [arctigenin]
XALD fibroblasts [1]
  Inhibits Mitochondrial Biogenesis?: no
